Assay results from US20160214958A1, “COMPOUNDS AND USE FOR TREATING CANCER” (GLIONOVA AB, priority 2013, published 2016).

What was measured:
[1] = In vivo pharmacokinetics studies of S10 (iv, ip, per oral); design: species or system male BALB/c Mice; settings: male, BALB/c, mouse, ip and per oral administration
Experimental: (§1) The bioavailability of S10 by oral and intraperitoneal injection in vivo was investigated. […] In a second delivery regimen, treatment was performed per orally (20 mg/kg) twice daily for five days. Treatment started at a terminal stage of GBM, i.e. six weeks after engraftment of U3013M GSCs and median survival from the time of treatment initiation and the Hazard ratio were scored.
In vivo pharmacokinetic studies of S10 were performed at SAI Life Sciences Ltd., Hyderabad, India to determine the plasma pharmacokinetics and brain distribution of S10 following a single intravenous, intraperitoneal and oral administration in male BALB/c Mice. Blood samples (approximately 60 μL) were collected from retro-orbital plexus of each mouse. The plasma and brain samples were obtained at 0.08, 0.25, 0.5, 1, 2, 4, 8, 24, 48, 72 and 144 hr (i.v.); 0.08, 0.25, 0.5, 1, 2, 4, 8 and 24 hour (i.p.) and 0.25, 0.5, 1, 2, 4, 6, 8, 24, 48, 72 and 144 hr (p.o.) post dosing. Plasma was harvested by centrifugation of blood and stored at −70° C. until analysis. Immediately after collection of blood, brain samples were collected from each mouse. Tissue samples (brain) were homogenized using ice-cold phosphate buffer saline (pH 7.4) and homogenates were stored below −70° C. until analysis. […] Plasma and brain samples were quantified using LC-MS/MS method LLOQ=1.03 ng/mL for plasma and LLOQ=10.25 ng/mL for brain. […]

[2] = system: U3013MG GSC xenograft; assay: Mouse Kaplan-Meier experiment, oral S10 at terminal stage of GBM; format: in vivo, NOD-SCID mice; settings: 20 mg/kg per orally for five days
Experimental: as §1
For Kaplan-Meier experiments, 100,000 GSC from U3013MG we injected into NOD-SCID mice as described above. Mice were then monitored for 6 weeks and then oral administration regiment was started. Mice were either given 200 μl of water or S10 in water corresponding to 20 mg/kg, via oral gavage. A total of nine animals were taken for each treatment (control, S10). The oral administration was followed once a day for five days following which the administration was stopped and the animals monitored till they reach the humane end point, after which they were sacrificed.

[3] = system: Caspase-3 and Caspase-7; assay: Caspase-3 and Caspase-7 enzymatic activity in GSC; format: cell-based, human; settings: 5-30 μM, 2 to 600 minutes
Experimental: A distinctive feature of apoptosis is the rapid loss of ATP associated with decoupling of the respiratory chain. Death of GSCs was therefore examined in the presence of the apoptosis inhibitor Q-VAD. […] However, Q-VAD only modestly rescued S10 treated cells from death at 3 and 7 hrs. […] Caspase-3 and Caspase-7 enzymatic activity was measured at 2, 15, 30, 60, 120, 120, 240, 360 and 600 minutes after addition of S10 at increasing concentrations from 5-30 μM. […] The rapid depletion of ATP by S10 led us to therefore examine the mitochondria. The accumulation of tetramethylrhodamine ethyl ester (TMRE) in mitochondria and […] is driven by their membrane potential. TMRE incorporation in mitochondria was largely unaffected by S10. […]
For measuring cell viability, cytotoxicity and apoptosis in GSC/fibroblast/mGlia cells were grown in 384-well microtiter plates using procedure described above. […] Cell viability, cytotoxcity and apoptosis were measured using CellTiter-Glo® Luminescent Cell Viability Assay (Promega), CytoTox-Glo Cytotoxicity Assay and […], according to manufacturer's instructions. […] Luminescence was measured using a Victor3 FA (Perkin Elmer) microtiterplate reader and the level of released Caspase 3/7 quantified relative to control using GraphPad Prism (v6.02) software.

## OC(c1cc(-c2ccc(Cl)cc2)nc2ccccc12)C1CCCCN1 (racemic) [Compound S10, (2-(4-chlorophenyl)quinolin-4-yl)(piperidin-2-yl)methanol]
[1]; plasma, following iv, read-out: bioavailability F
  bioavailability: 69%
[1]; plasma and brain exposure following iv, read-out: half-life t1/2 (converted)
  half-life: 20 h
[2]; comparison of the two survival curves
  Hazard ratio (rate of death untreated vs S10 treated group): 2.293
[2]; start six weeks after engraftment, n=9, DMSO treated animals 7 days
  median survival from the time of treatment initiation: 12 days
[3]
  caspase activity relative to DMSO control: no effect on caspase activity
